Source: patent US20120093875A1, “AMINOCYCLITOL COMPOUNDS, PROCESS FOR OBTAINING THEM AND USES” (priority 2009, published 2012)

Key:
[1] = system: mouse iNKT cells; assay: Mouse iNKT cells expansion in vitro in spleen cell cultures (flow cytometry, TCR/NK1.1); assay type: cell-based
Description: The compounds were assayed at a final concentration of 1 μg/mL in complete medium with 1% of methanol (MeOH), while the αGalCer (αGC) was used at 0.2 μg/mL. The cell cultures were labeled with anti-NK1-PE and anti-TCR-FITC specific antibodies. The percentages of NKT cells (double positive cells) were calculated within the population of electronically selected T cells.
First, the ability to induce the specific proliferation of mouse iNKT was determined by culture experiments in vitro. For that, spleen cells derived from female B57Bl/6 mice between 10 and 20 weeks were isolated and the red blood cells were removed by hypotonic lysis. The spleen cells are distributed in 96 U-well plates, between 100,000 and 500,000 cells per well, and incubated in the presence of each of the compounds 1a, 1b, 2b, 3a, 3b and 4b at a final concentration of 1 μg/mL in RPMI-1640 growth medium, 10% fetal serum, […], 1% methanol. […] The culture was analyzed at day 5 or 6 by flow cytometry, using TCR and NK1.1 specific antibodies. In the presence of the control αGalCer:
(§1) Mouse C57BL/6 spleen cells are obtained by isolation of the spleen of female mice from 8 to 12 weeks of age, according to protocols approved by the Animal and Human Research Ethics Committee of the Autonomous University of Barcelona. The spleens are disaggregated with the plunger of a syringe in […] in a laminar flow hood, removing the red blood cells with lysis buffer (Sigma-Aldrich). 5×10^5 cells are placed in the wells of 96 U-well plates, and incubated with 100 ng/mL of α-GalCer, OCH, or 1 μg/mL of the compounds 1a, 1b, 2b, 3a, 3b, and 4b in RPMI-1640 medium supplemented with 10% fetal calf serum (FCS) (Labclinics), 50 μM 2-mercaptoethanol, 2 mM L-glutamine and 1% methanol (non-toxic concentration for the cells), and grown at 37° C. in a 5% CO2 humidified atmosphere. 25 U/mL of recombinant human interleukin 2 are added at day 2 of culture.
The spleen cells cultures grown in the indicated conditions are analyzed by flow cytometry in a FACS Calibur (Beckton Dickinson Bioscience) for quantifying the levels of proliferation of the iNKTs after incubation with the compounds 1a, 1b, 2b, 3a, 3b, and 4b. The stimulated spleen cultures are washed and preincubated with 50 μl of staining medium (PBS with 2% FCS) with anti-CD16 (clone 2.4G2) for 20 min in ice. Subsequently the cells are washed and resuspended in staining medium with mouse anti-TCR antibody conjugated to fluorescein isothiocyanate (FITC) (clone H57-597, BD-Pharmingen) and anti-NK1.1 conjugated to avidin (clone PK-136, BD-Pharmingen) for 30 min in ice. […] The samples are analyzed in the flow cytometer (FACSCalibur) and the data are processed using the program CellQuest (BD Bioscience).

[2] = system: IL-4 production by iNKT cells; assay: IL-4 production in mouse spleen cell cultures, dose-response (ELISA); assay type: cell-based; conditions: dose-response (FIG. 3b)
Excerpt: (§2) Quantifying of the production of IFNγ (FIG. 3A) and IL-4 (FIG. 3B) after the stimulation in vitro of cultures of mouse spleen cells containing lipidic agonists of iNKT cells in a dose-response assay.
The CD1d glycolipidic ligands induce a deviation in the production of cytokines by iNKT cells to Th1 or Th2, depending on its ability to be presented by CD1d, and its structural characteristics recognized by the TCR. For quantifying more precisely the immunostimulating ability of the compound 4b and determining if it induces a deviation in the iNKT response, its ability to induce the production of IFNγ and IL-4 is titrated in the cell cultures using different concentrations, and comparing the same with the two prototypical ligands, αGalCer and OCH (dissolved in MeOH), that have been described as inducers of a Th1 and Th2 response, respectively. […]
(§3) For the determinations of IL-4 and IFNγ, culture supernatants are taken at day 4 or day 7, and stored at −70° C. or used immediately in ELISA assays (eBioscience) for quantifying the cytokines, following the manufacturer's instructions. […] The statistical significance of the results is analyzed using a t-Student test, considering significant differences with p<0.01. […]

[3] = system: iNKT cells; assay: Th1/Th2 deviation of the iNKT response (IFNγ versus IL-4 production); assay type: cell-based, mouse; conditions: for type of cytokine response (Th1/Th2 profile): IL-4 versus IFNγ induction in mouse spleen cell cultures; for IFNγ/IL-4 ratio: cytokines in mouse spleen cell culture supernatants (ELISA)
Excerpt: (§4) The CD1d glycolipidic ligands induce a deviation in the production of cytokines by iNKT cells to Th1 or Th2, depending on its ability to be presented by CD1d, and its structural characteristics recognized by the TCR. For quantifying more precisely the immunostimulating ability of the compound 4b and determining if it induces a deviation in the iNKT response, its ability to induce the production of IFNγ and IL-4 is titrated in the cell cultures using different concentrations, and comparing the same with the two prototypical ligands, αGalCer and OCH (dissolved in MeOH), that have been described as inducers of a Th1 and Th2 response, respectively.
as §1
For the determinations of IL-4 and IFNγ, culture supernatants are taken at day 4 or day 7, and stored at −70° C. or used immediately in ELISA assays (eBioscience) for quantifying the cytokines, following the manufacturer's instructions. Standard curves are generated with the recombinant cytokines included in the kit. The statistical significance of the results is analyzed using a t-Student test, considering significant differences with p<0.01. The compounds 1a, 1b, 2b, 3a, 3b, and 4b are resuspended in 100% methanol or 100% dimethyl sulfoxide at a concentration of 1 mg/mL, and a 1/10 use dilution in PBS is prepared, with a final concentration of 100 μg/mL. The compounds are heated at 56° C. for 10-30 min and sonicated, before being diluted in complete growth medium, with a final concentration of 1% vehicle in the cellular assay.

[4] = system: IFNγ production by iNKT cells; assay: IFNγ production in mouse spleen cell cultures, dose-response (ELISA); assay type: cell-based; conditions: dose-response (FIG. 3a)
Excerpt: as §2, §4, §1, §3

[5] = compound 1 μg/mL, 1% methanol, IL-2 at day 2, analysed day 5 or 6

CCCCCCCCCCCCCCCCCCCCCCCCCC(=O)N[C@@H](CNC1[C@H](O)[C@H](O)C(O)[C@H](O)[C@H]1O)[C@H](O)[C@H](O)CCCCCCCCCCCCCC (some centres unmarked) [Compound 3a]
expansion of iNKTs [1, 5]: approximately 2 times

CCCCCCCCCCCCCC[C@@H](O)[C@@H](O)[C@H](CNC1[C@H](O)[C@H](O)C(O)[C@H](O)[C@H]1O)NC(=O)CCCCCCC (some centres unmarked) [Compound 3b]
expansion of iNKTs [1, 5]: approximately 2 times

CCCCCCCCCCCCCCCCCCCCCCCCCC(=O)N[C@@H](CN[C@H]1C[C@H](O)[C@@H](O)[C@H](O)[C@H]1O)[C@H](O)[C@H](O)CCCCCCCCCCCCCC [Compound 4b, (2S,3S,4R)-2-hexacosanamide-1-(1′S,2′S,3′R,4′R,5′S)-2,3,4,5,-tetrahydroxycyclohexylaminooctadecane-3,4-diol]
NKT cells as percentage of the T cells after incubation ([1]; compound 1 μg/mL, increase from 1.2% baseline, day 5 or 6 (FIG. 1)): 6.2% | concentration at which induction of IL-4 is maintained with high efficiency [2]: 100 ng/mL | concentration at which induction of IL-4 is still significant [2]: 33 ng/mL | type of cytokine response (Th1/Th2 profile) [3]: preferably Th2-type response | IFNγ/IL-4 ratio [3]: 2 | response compared with the Th2 response prototype OCH ([3]; mouse spleen cell cultures, dose-response): lower response | concentration at which production of IFNγ is induced [4]: 333 ng/mL | concentration at which the maximal IFNγ response plateau is reached [4]: 1 µg/mL | magnitude of the maximal IFNγ response compared with α-GalCer [4]: lower magnitude

CCCCCCCCCCCCCCCCCCCCCCCCCC(=O)N[C@@H](CO[C@H]1O[C@H](CO)[C@H](O)[C@H](O)[C@H]1O)[C@H](O)[C@H](O)CCCCCCCCCCCCCC [αGalCer, α-galactosylceramide, reference compound]
expansion of the population of NKT cells over the baseline conditions ([1]; αGalCer control (0.2 μg/mL per FIG. 1), 1% methanol, IL-2 at day 2, analysed day 5 or 6): more than 5 times | type of cytokine response (Th1/Th2 profile) [3]: high Th1 profile | IFNγ/IL-4 ratio [3]: 10
